This passage reports glass transition temperature results from the PolyMetriX glass transition set.

`*/C=C(/*)C(CCCCCCC)[Si](C)(C)C` (repeat unit) had a glass transition temperature of 150.00 °C.

Compound `*/C=C/c1ccc(/N=N/c2ccc(N(C)CCOC(=O)Nc3ccc(C)c(NC(=O)OCCN(C)c4ccc(/N=N/c5ccc(/C=C/C6=CC(=C(C#N)C#N)C=C(*)O6)cc5)cc4)c3)cc2)cc1` (repeat unit) came in with a glass transition temperature of 196.00 °C.

As to `*C(=O)NC1CCC(CC2CCC(NC(=O)c3ccc(N4C(=O)c5ccc(*)cc5C4=O)cc3)CC2)CC1` (repeat unit), the glass transition temperature was found to be 275.00 °C.

With `*C(=O)Nc1ccc(C)cc1N1C(=O)CC(N2C(=O)c3ccc(*)cc3C2=O)C1=O` (repeat unit), the glass transition temperature stood at 237.00 °C.

Consider `*C(=O)Nc1ccc(NC(=O)c2ccc3c(c2)C(=O)N(c2ccc(Oc4ccc(N5C(=O)c6ccc(*)cc6C5=O)cc4)cc2)C3=O)c(OCCCCCCS(=O)(=O)c2ccc(/C=C/c3ccc(N(C)C)cc3)cc2)c1` (repeat unit), for which the glass transition temperature came out at 192.00 °C.

`*CC(=O)NC(C)C(=O)O*` (repeat unit) came in with a glass transition temperature of 54.60 °C.

As to `*CC(C)(C)COC(=O)Nc1ccc(C)c(NC(=O)O*)c1` (repeat unit), the glass transition temperature was -32.00 °C.

As to `*CC(F)(F)C(F)(F)C(F)(F)COC(=O)NCC(F)(F)C(F)(F)C(F)(F)C(F)(F)CNC(=O)O*` (repeat unit), the glass transition temperature was determined as 25.00 °C.

For `*CCCCCCCCCCCCCCNC(=O)NCCCCCCCCCCNC(=O)N*` (repeat unit), the glass transition temperature was found to be 40.00 °C.

`*CCCCCCCCCCCCCCNC(=O)NCc1ccc(CNC(=O)N*)cc1` (repeat unit) came in with a glass transition temperature of 54.00 °C.

The compound `*CCCCCCCCCCCCNC(=O)c1ccc(C(=O)N*)cc1` (repeat unit) displayed a glass transition temperature of 130.00 °C.

For the compound `*CCCCCCCCCCNC(=O)NCc1ccc(CNC(=O)N*)cc1` (repeat unit), the glass transition temperature was found to be 55.00 °C.

`*CCCCCCCCOC(=O)Nc1ccc(C)c(NC(=O)O*)c1` (repeat unit) displayed a glass transition temperature of 64.00 °C.

The compound `*CCCCCCOC(=O)NCC(F)(F)C(F)(F)C(F)(F)C(F)(F)CNC(=O)O*` (repeat unit) came in with a glass transition temperature of 5.00 °C.

For `*CCCCCCOC(=O)Nc1ccc(NC(=O)OCCCCCCOc2ccc(-c3ccc(O*)cc3)cc2)c(C)c1` (repeat unit), the glass transition temperature turned out to be 89.00 °C.

For `*CCCCCOC(=O)c1ccccc1C(=O)[O][Pb][O]C(=O)c1ccccc1C(=O)OCCCCCOC(=O)Nc1ccc(C)c(NC(=O)O*)c1` (repeat unit), the glass transition temperature was -11.30 °C.

`*CCCCOC(=O)NCC(F)(F)C(F)(F)C(F)(F)C(F)(F)CNC(=O)O*` (repeat unit): the glass transition temperature came out at 33.00 °C.

Compound `*CCCCOC(=O)Nc1ccc(C)c(NC(=O)O*)c1` (repeat unit) registered a glass transition temperature of 42.00 °C.

Regarding `*CCN(CCCCCCOc1ccc(/C=C/c2ccc([N+](=O)[O-])cc2)cc1)CCOC(=O)Nc1ccc(C)c(NC(=O)O*)c1` (repeat unit), the glass transition temperature was found to be 58.50 °C.

`*CCN(CCOC(=O)NCC1(C)CC(NC(=O)O*)CC(C)(C)C1)c1ccc(/N=N/c2ccc([N+](=O)[O-])cc2)cc1` (repeat unit): the glass transition temperature was determined as 137.00 °C.

The compound `*CCN(CCOC(=O)Nc1cccc(NC(=O)O*)c1C)c1ccc(/N=N/c2ccc([N+](=O)[O-])cc2)cc1` (repeat unit) showed a glass transition temperature of 147.00 °C.

As for `*CCOC(=O)Nc1cc(NC(=O)O*)ccc1C` (repeat unit), the glass transition temperature amounted to 52.00 °C.

Take `*CCOCCOC(=O)C(CCCCCCC)C(=O)O*` (repeat unit): the glass transition temperature was -58.00 °C.

Turning to `*CCOCCOCCOCCOCCOCCOC(=O)c1cc(OCCCCCCOc2ccc(-c3ccc(OC)cc3)cc2)cc(C(=O)O*)c1` (repeat unit), the glass transition temperature is 12.50 °C.

With `*NC(C)(CC)C(*)=O` (repeat unit), the glass transition temperature was found to be 74.2 °C.

In turn, `*NC(CCC(=O)Nc1ccc(N(c2ccccc2)c2ccccc2)cc1)C(*)=O` (repeat unit) came in with a glass transition temperature of 132.00 °C.

For `*NC(CCC(=O)OCCC)C(*)=O` (repeat unit), the glass transition temperature was -10.00 °C.

In the case of `*NC(CCC(=O)OCCCC)C(*)=O` (repeat unit), the glass transition temperature is -15.00 °C.

`*NC(CCC(=O)OCCCCCCCCCC)C(*)=O` (repeat unit) registered a glass transition temperature of -62.00 °C.

`*NC1CC(C)(C)CC(C)(CNC(=O)CCCCC(*)=O)C1` (repeat unit) returned a glass transition temperature of 150.80 °C.

As to `*Nc1cc(NC(=O)C(*)=O)ccc1C` (repeat unit), the glass transition temperature was -54.6 °C.

`*Nc1cc(NC(=O)c2cc(OCCN(C)c3ccc(S(=O)(=O)C(F)(F)C(F)(F)C(F)(F)C(F)(F)C(F)(F)C(F)(F)C(F)(F)C(F)(F)F)cc3)cc(C(*)=O)c2)cc(C(=O)OCCN(C)c2ccc(C#N)cc2)c1` (repeat unit): the glass transition temperature came to 157.00 °C.

Compound `*Nc1cc(NC(=O)c2cc(OCCN(C)c3ccc([N+](=O)[O-])cc3)cc(C(*)=O)c2)cc(C(=O)OC)c1` (repeat unit) yielded a glass transition temperature of 177.00 °C.

`*Nc1cc(NC(=O)c2cc(OCCN(C)c3ccc([N+](=O)[O-])cc3)cc(C(*)=O)c2)cc(C(=O)OC2CC(C)CCC2C(C)C)c1` (repeat unit) yielded a glass transition temperature of 193.00 °C.

The compound `*Nc1cc(NC(=O)c2ccc(C(*)=O)cc2)cc(C(=O)OCCOc2ccc(/C=C/C(=O)c3ccccc3)cc2)c1` (repeat unit) returned a glass transition temperature of 233.00 °C.

For `*Nc1cc(NC(=O)c2cccc(C(*)=O)c2)cc(C(=O)Oc2ccc(Oc3ccc(C#N)c(C#N)c3)cc2)c1` (repeat unit), the glass transition temperature was determined as 305.00 °C.

The compound `*Nc1cc([N+](=O)[O-])c(NC(=O)CCCCCCCCC(*)=O)cc1/C=C/c1ccc(N(C)C)cc1` (repeat unit) came in with a glass transition temperature of 159.00 °C.

`*Nc1cc([N+](=O)[O-])c(NC(=O)CCCCCCCCCCC(*)=O)cc1/C=C/c1ccc(N(C)C)cc1` (repeat unit) registered a glass transition temperature of 144.00 °C.

`*Nc1ccc(Cc2ccc(NC(=O)NCCCCCCCCCCCCNC(*)=O)cc2)cc1` (repeat unit) gave a glass transition temperature of 51.00 °C.

As for `*Nc1ccc(NC(=O)c2ccc(NC(=O)CCCCCCC(=O)Nc3ccc(C(*)=O)cc3)cc2)cc1C(=O)OCCCCCCCCCCCCCCCCCC` (repeat unit), the glass transition temperature was 305.00 °C.

`*Nc1ccc(NC(=O)c2ccc(NC(=O)CCCCCCCCCCCCC(=O)Nc3ccc(C(*)=O)cc3)cc2)cc1C(=O)OCCCCCCCCCCCCCC` (repeat unit) registered a glass transition temperature of 204.50 °C.

In turn, `*Nc1ccc(NC(=O)c2ccc(NC(=O)CCCCCCCCCCCCC(=O)Nc3ccc(C(*)=O)cc3)cc2)cc1C(=O)OCCCCCCCCCCCCCCCCCC` (repeat unit) came in with a glass transition temperature of 191.00 °C.

For the compound `*Nc1cccc(NC(=O)c2cccc(C(=O)Nc3ccc(C(=O)NC(*)=S)cc3)c2)c1` (repeat unit), the glass transition temperature was determined as 270.00 °C.

In the case of `*OC(=O)C(C)NC(=O)CCCCCC(=O)NC(C)C(=O)OC1COC2C(*)COC12` (repeat unit), the glass transition temperature was determined as 45.00 °C.

For the compound `*OC(=O)C(C)NC(=O)CCCCCCC(=O)NC(C)C(=O)OC1COC2C(*)COC12` (repeat unit), the glass transition temperature is 57.00 °C.

Take `*OC(=O)C(C)NC(=O)CCCCCCCC(=O)NC(C)C(=O)OC1COC2C(*)COC12` (repeat unit): the glass transition temperature is 46.00 °C.

For the compound `*OC(=O)C(C)NC(=O)CCCCCCCCCCC(=O)NC(C)C(=O)OC1COC2C(*)COC12` (repeat unit), the glass transition temperature was determined as 28.00 °C.

The compound `*OC(=O)C(CC(C)C)NC(=O)CCCCC(=O)NC(CC(C)C)C(=O)OC1COC2C(*)COC12` (repeat unit) gave a glass transition temperature of 91.00 °C.

`*[O][Ca][O]C(=O)c1ccccc1C(=O)OCCCCCOC(=O)Nc1cc(NC(=O)OCCCCCOC(=O)c2ccccc2C(*)=O)ccc1C` (repeat unit) registered a glass transition temperature of 5.10 °C.

Regarding `*[O][Zn][O]C(=O)c1ccccc1C(=O)OCCCCCOC(=O)Nc1cc(NC(=O)OCCCCCOC(=O)c2ccccc2C(*)=O)ccc1C` (repeat unit), the glass transition temperature turned out to be 4.20 °C.

Regarding `*Oc1cc(C(C)(C)C)c(Oc2ccc(C(=O)Nc3c(C)cc(Cc4cc(C)c(NC(=O)c5ccc(*)cc5)c(C(C)C)c4)cc3C(C)C)cc2)cc1C(C)(C)C` (repeat unit), the glass transition temperature worked out at 260.00 °C.

In turn, `*Oc1cc(OCCOC)c(OC(=O)c2ccc(C(*)=O)cc2OCCOCC)cc1OCCOC` (repeat unit) gave a glass transition temperature of 99.00 °C.

Turning to `*Oc1ccc(/N=C/CCC/C=N/c2ccc(OC(=O)Nc3cc(NC(*)=O)ccc3C)cc2)cc1` (repeat unit), the glass transition temperature is 69.00 °C.

Compound `*Oc1ccc(C(*)=O)cc1CCCCC` (repeat unit) registered a glass transition temperature of 50.00 °C.

`*Oc1ccc(Cc2ccc(OC(=O)c3cc(OCCCCC)cc(C(*)=O)c3)cc2)cc1` (repeat unit) yielded a glass transition temperature of 110.00 °C.

For `*Oc1ccc(OC(=O)c2cc(OCCCCCCCCCCCC)c(C(*)=O)cc2OCCCCCCCCCCCC)cc1C` (repeat unit), the glass transition temperature came out at 112.00 °C.

The compound `*Oc1ccc(OC(=O)c2ccc(C(*)=O)cc2Oc2ccc(C(C)(C)c3ccccc3)cc2)cc1` (repeat unit) displayed a glass transition temperature of 93.00 °C.

`*Oc1ccc(S(=O)(=O)c2ccc(OC(=O)c3cc(CCCCC)cc(C(*)=O)c3)cc2)cc1` (repeat unit) showed a glass transition temperature of 170.00 °C.

In the case of `*Oc1cccc(OC(=O)c2cc(OCCCCC)cc(C(*)=O)c2)c1` (repeat unit), the glass transition temperature worked out at 96.00 °C.

As for `*Oc1ccccc1C(=O)OC(=O)c1ccccc1OC(=O)C(CC)C(CC)C(*)=O` (repeat unit), the glass transition temperature is 23.00 °C.

For the compound `*c1ccc(OC(=O)c2cc(C(=O)Oc3ccc(C4(*)OC(=O)c5ccccc54)cc3)cc(C(C)(C)C)c2)cc1` (repeat unit), the glass transition temperature is 279.00 °C.

Consider `*c1ccc2c(c1)C(=O)N(c1cc(C(=O)Oc3ccc(C(c4ccc(OC(=O)c5ccc(C)c(N6C(=O)c7ccc(C(*)(C(F)(F)F)C(F)(F)F)cc7C6=O)c5)cc4)(C(F)(F)F)C(F)(F)F)cc3)ccc1C)C2=O` (repeat unit), for which the glass transition temperature turned out to be 289.00 °C.
